{"source": "patent US20210244791A1", "about": "“APPLICATION OF PEDF-DERIVED SHORT PEPTIDES IN TENDON HEALING” (BRIM Biotechnology, Inc., priority 2018, published 2021)", "key": {"[1]": {"tested_on": "cultured tendon stem/progenitor cells (TSPC)", "conditions": "peptide added in culture medium; previous study; cited from earlier work"}, "CD146-positive TSPC": {"tested_on": "CD146-positive TSPC", "experiment": "CD146 immunostaining of TSPC in injured Achilles tendon", "assay_type": "in vivo, rat", "conditions": "1 week after wounding; peptide/alginate gel; vehicle/alginate 38.3±7.8", "experimental": "(A) Representative CD146-stained longitudinal sections. (Original magnification×200). (B) The number of CD146-positive TSPC per 200×field of view on injured tendon sections. Data are reported as mean±SE. Total CD146^+ cells were evaluated from 6 sections/tendon specimen, with 3 rats in each group. *P<0.001 versus vehicle/alginate-treated tendon; #p <0.001 versus 29-mer/alginate-treated tendon.\nTo investigate the effects of the 29-mer peptide on tendon healing, a rat model of Achilles tendon injury was established as reported by Orhan et al. (The effect of extracorporeal shock waves on a rat model of injury to tendon Achilles. A histological and biomechanical study. J. Bone Joint Surg. Br. 2004;.86(4):.613-618). Adult 10-week-old male Sprague-Dawley rats (initial body weight=312±11 g) were anesthetized by an intraperitoneal injection of xylazine (10 mg/kg). Then, the left tendo Achilles injury was created by full-thickness insertion of an 18-G needle through tendo Achilles 1 cm proximal to the calcaneum attachment site. This created a horizontal wound that was flanked by intact tendon tissue to prevent the retraction of severed ends. […]\nCD146 is one of the TSPC markers. […] To test the mechanism of the 29-mer-induced tendon repair, CD146 immunostaining of TSPC located at injured tendon was measured, at 1 week after wounding. […]"}, "tendon rupture": {"tested_on": "tendon rupture", "conditions": "rat model; previous study; cited from earlier work"}, "injured Achilles tendon": {"tested_on": "injured Achilles tendon", "experiment": "Rat model of Achilles tendon injury, histology (H&E) and histopathological score", "assay_type": "in vivo", "conditions": "1 week postoperative", "description": "Representative micrographs of the histopathological analysis by H&E staining. H&E-stained sections in higher magnification show uninjured tendon tissue with a relative scarcity of cells among the collagen fibers.\n(A) Representative H&E-stained longitudinal sections in higher magnification show the nuclei morphologies in uninjured tendon tissue and injured tendon treated with vehicle/alginate and 29-mer/alginate for 1 week. (B) Histopathological scores. Total scores were determining by fiber structure, fiber arrangement, rounding of the nuclei, resident cell density and inflammation (infiltration of inflammatory cells, neovascularization and fatty deposits). Data are reported as mean±SE. *P<0.0005 versus vehicle/alginate-treated tendon; ^#P<0.05 versus 29-mer/alginate-treated tendon.\nTo investigate the effects of the 29-mer peptide on tendon healing, a rat model of Achilles tendon injury was established as reported by Orhan et al. (The effect of extracorporeal shock waves on a rat model of injury to tendon Achilles. A histological and biomechanical study. J. Bone Joint Surg. Br. 2004;.86(4):.613-618). Adult 10-week-old male Sprague-Dawley rats (initial body weight=312±11 g) were anesthetized by an intraperitoneal injection of xylazine (10 mg/kg). Then, the left tendo Achilles injury was created by full-thickness insertion of an 18-G needle through tendo Achilles 1 cm proximal to the calcaneum attachment site. This created a horizontal wound that was flanked by intact tendon tissue to prevent the retraction of severed ends. The skin incision was closed after the wound was irrigated with sterile saline. Treatments were applied to area around the tendon lesion by subcutaneous injection with 150 μl of alginate gel mixed with 100 μM 29-mer or DMSO vehicle (six rats per experimental condition).\nThe tendon and surrounding soft tissue were dissected. Specimens were fixed in a 4% paraformaldehyde (PFA) solution and then were embedded in paraffin blocks. Sections (5 μm in thickness) were longitudinally cut and stained with hematoxylin and eosin (H&E) or used for immunohistochemical examination. 36 sections per tendon were carefully prepared so as to include the most severely degenerated area. Images were captured using a Nikon Eclipse 80i microscope (Nikon Corporation, Tokyo, Japan) equipped with a Leica DC 500 camera (Leica Microsystems, Wetzlar, Germany). Four sections of each sample containing injured tendon tissues were selected and evaluated by two blinded observers to assess the tendon morphology according to a modified semi-quantitative grading score from 0 to 3 proposed by Chen et al. (Tendon derived stem cells promote platelet-rich plasma healing in collagenase-induced rat Achilles tendinopathy. Cell Physiol. Biochem., 2014; 34(6): 2153-68). The scores analyzed the fiber structure (0-3), fiber arrangement (0-3), rounding of the nuclei (0-3), resident cell density (0-3), and inflammation (0-3; infiltration of inflammatory cells, neovascularization and fatty deposits). According to this grading system, a perfectly normal tendon obtained a score of 0, whereas a score of 15 was assigned to maximally abnormal tendons.\nTo investigate the therapeutic effect of the 29-mer peptide on injured tendon, a rat model of Achilles tendon injury was established by full-thickness insertion of an 18-G needle through the tendon Achilles. We delivered the 29-mer in a 150 μl alginate gel, which releases 90% loaded 29-mer in 5 days as described in a previous protocol (Ho et al., PEDF-derived peptide promotes skeletal muscle regeneration through its mitogenic effect on muscle progenitor cells. Am J Physiol. Cell Physiol. 2015 Aug. 1; 309(3): C159-68)."}}, "data": [{"sequence": "SLGAEQRTESIIHRALYYDLISSPDIHGT (listed as Homo sapiens) [29-mer, PEDF-derived short peptide, human PEDF residues 93-121]", "values": [{"measurement": "induction of cultured TSPC proliferation", "setting": "[1]", "value": "able to induce cultured tendon stem/progenitor cells (TSPC) proliferation"}, {"measurement": "number of CD146-positive TSPC on injured tendon sections", "setting": "CD146-positive TSPC", "value": "86.8±6.0", "unit": "cells per 200× field"}, {"measurement": "healing of tendon rupture", "setting": "tendon rupture", "value": "facilitated healing of tendon rupture"}, {"measurement": "total histopathological score", "setting": "injured Achilles tendon; peptide/alginate gel, 0 = normal tendon, 15 = maximally abnormal, vehicle/alginate 12.7±0.6", "value": "7.9±0.4"}, {"measurement": "histological appearance of treated tendon (H&E staining)", "setting": "injured Achilles tendon; subcutaneous 150 μl alginate gel with 100 μM peptide", "value": "uniform appearance of well-aligned collagen fibers"}]}]}
